We go through 14 compounds from article PMC13083723 (Patterns, 2026).

Structures are written as SMILES. pEC50, pIC50: −log10 of the molar value. Where “and” joins values, the source holds several entries; their conditions need not be identical. Equal values may be shown once. Read-outs that look alike come from different tables or passages of the source.

The subject of data set [1] is Vero-E6 cells. The data set is described as follows: cells. Format: cell-based. The conditions noted are these: Chlorocebus sabaeus.
For data set [2], the system named is A549 cells. The data set is described as follows: PLD assay of predicted ENZO library compounds in A549 cells. The settings on record: Homo sapiens, A549, read-out: PLD effect % in A549.
Data set [3] relates to CaCo2 cells. The conditions noted are these: 10 μM in-assay concentration; ENZO library; amiodarone as positive control.
Data set [4] has as its system SARS-CoV-2. The settings on record: Caco-2, 20 µM; cited from earlier work.
Data set [5] concerns A549-ACE2 cells. Put plainly: cells. In kind it is cell-based. The conditions noted are these: A549-ACE2, 24 h, read-out: PLD_Effect(%) A549-ACE2.
For data set [6] the following is noted: cited from earlier work.
Data set [7] relates to SARS-CoV-2. The conditions noted are these: 10 µM; cited from earlier work.
[8] abbreviates: Vero C1008, 24 h, read-out: PLD effect % in Vero-E6.
[9] abbreviates: value is the negative log10 of mol/L.

Regarding `CNCC[C@@H](Oc1ccccc1C)c1ccccc1` [Atomoxetine], the activation at 10 µM was 27.7% in data set [1] (setting [8]) and 70.9% in data set [2]. Moreover, in data set [3], the “PLD effect % in CaCo2” value turned out to be 0.7%.
For `CN1CCCC(n2nc(Cc3ccc(Cl)cc3)c3ccccc3c2=O)CC1` (stereo not drawn) [Azelastine], the figures for the activation at 10 µM in data set [1] (setting [8]) and in data set [2] were 81.7% and 89.8%, respectively. In data set [3], the “PLD effect % in CaCo2” value stood at 36.5%.
In the case of `CN(C)CCCN1c2ccccc2Sc2ccc(Cl)cc21` [Chlorpromazine], the figures for the activation at 10 µM in data set [1] (setting [8]) and in data set [2] were 116% and 80.8%, respectively. Further, the “PLD effect % in CaCo2” value in data set [3] is 67.1%.
On the same counts, the results for `C[C@@H](NCCCc1cccc(C(F)(F)F)c1)c1cccc2ccccc12` [Cinacalcet] are 43%, 105% and 20.9%.
The like results for `CN1CCC[C@@H]1CCO[C@](C)(c1ccccc1)c1ccc(Cl)cc1` [Clemastine] were, in that order, 30.1%, 50.4% and 6.9%.
Take `CN(C)CCCN1c2ccccc2CCc2ccc(Cl)cc21` [Clomipramine]: the activation at 10 µM in data set [1] (setting [8]) was 70.9%; in data set [2], 66.2%. For the same compound, in data set [3], the “PLD effect % in CaCo2” value is recorded as 74.6%.
On the same counts, the results for `CNCC[C@H](Oc1cccc2ccccc12)c1cccs1` [Duloxetine] are 95.9%, 108% and 84.9%.
On to `CNCCC(Oc1ccc(C(F)(F)F)cc1)c1ccccc1` (stereo not drawn) [Fluoxetine, reference compound], for which the results for the activation at 10 µM in data set [1] (setting [8]) and in data set [2] were 111% and 108%, respectively.
`OCCN1CCN(CCCN2c3ccccc3Sc3ccc(C(F)(F)F)cc32)CC1` [Fluphenazine]: the activation at 10 µM is 90.3% in data set [1] (setting [8]) and 77.4% in data set [2]. Moreover, the “PLD effect % in CaCo2” value in data set [3] is reported as 95.4%.
Turning to `CN(C/C=C/c1ccccc1)Cc1cccc2ccccc12` [Naftifine], the activation at 10 µM was -1.6% in data set [1] (setting [8]) and 7.5% in data set [2]. For the same compound, the “PLD effect % in CaCo2” value in data set [3] is −3.3%.
As to `CC(CN1c2ccccc2Sc2ccccc21)N(C)C` (stereo not drawn) [Promethazine], the activation at 10 µM is 90.7% in data set [1] (setting [8]) and 81.9% in data set [2]. Also, the “PLD effect % in CaCo2” value in data set [3] worked out at 37.8%.
Turning to `CSc1ccc2c(c1)N(CCC1CCCCN1C)c1ccccc1S2` (stereo not drawn) [Thioridazine], the activation at 10 µM in data set [1] (setting [8]) was 44.7%; in data set [2], 33.5%. Besides, the “PLD effect % in CaCo2” value in data set [3] is 22.7%.
Regarding `CN1CCN(CCCN2c3ccccc3Sc3ccc(C(F)(F)F)cc32)CC1` [Trifluoperazine], the activation at 10 µM was 102% in data set [1] (setting [8]) and 97.8% in data set [2]. Also, the “PLD effect % in CaCo2” value in data set [3] is reported as 63.2%.
With `COCC(=O)O[C@]1(CCN(C)CCCc2nc3ccccc3[nH]2)CCc2cc(F)ccc2[C@@H]1C(C)C` [mibefradil, reference compound], in data set [1] (Vero C1008, 24 h, read-out: PLD_Effect(%) VERO-E6), the activation at 10 µM is 88.2%. Besides, the activation at 5 µM in data set [1] (Vero C1008, 24 h, read-out: PLD Effect in % 5 µM) came to 62%. In data set [1] (Vero C1008, 24 h, read-out: PLD Effect in % 10 µM), the activation at 10 µM came out at 80.5%. Besides, in data set [1] (Vero C1008, 24 h, read-out: PLD Effect in % 20 µM), the activation at 20 µM turned out to be 2.41%. In addition, the pEC50 in data set [1] (Vero C1008, read-out: PLD EC50) is 5.61. In addition, the “CaCo2 CPE inhibition %” value in data set [4] is 52.45%. The activation at 10 µM in data set [5] was determined as 97.4%. Also, in data set [6], the “pchembl_value (type AC50), Dopamine D3 receptor” value was 6.08; the “pchembl_value (type AC50), Mu opioid receptor” value is reported as 6.01; the “pchembl_value (type AC50), Serotonin 1a (5-HT1a) receptor” value is reported as 6.13. Also, the AC50 in data set [6] (read-out: AC50 (value), Dopamine D3 receptor) was 825 nM. The half-maximal activity concentration (AC50) in data set [6] (read-out: AC50 (value), Mu opioid receptor) is 979 nM. Also, the concentration at half-maximal activity (AC50) in data set [6] (read-out: AC50 (value), Serotonin 1a (5-HT1a) receptor) is 746 nM. In addition, in data set [6] (read-out: IC50 (value), Voltage-gated L-type calcium channel alpha-1C subunit), the pIC50 was 6.60. Also, in data set [6] (setting [9]), the “pchembl_value (type IC50), Voltage-gated L-type calcium channel alpha-1C subunit” value is recorded as 6.60; the “pchembl_value (type IC50), Voltage-gated T-type calcium channel alpha-1G subunit” value is 6.00 and 7.19; the “pchembl_value (type IC50), Voltage-gated T-type calcium channel alpha-1H subunit” value was 6.00 and 6.89; the “pchembl_value (type IC50), Voltage-gated T-type calcium channel alpha-1I subunit” value is 6.90 and 6.00 and 6.89. The “Vero-E6 CPE inhibition %” value in data set [7] was -0.26.
